Results reported in patent US12037324B2, “Biarylmethyl heterocycles” (Université de Montréal, priority 2016, dated 2024).

Tests used:
[1] = molecular target: T1, AGTR1 (Homo sapiens, UniProt P30556); experiment: DiscoveRx β-arrestin2 recruitment assay (enzyme complementation, Pathunter CHO-K1 AGTR1 β-arrestin cell line); type: cell-based; conditions: DiscoveRx β-arrestin2 recruitment; for DiscoveRx β-arrestin2 Ymax (%): maximal response
T1 construct: host or cells: Pathunter CHO-K1 AGTR1 β-arrestin cell line (CHO-K1)
T1 sequence (P30556 1-359): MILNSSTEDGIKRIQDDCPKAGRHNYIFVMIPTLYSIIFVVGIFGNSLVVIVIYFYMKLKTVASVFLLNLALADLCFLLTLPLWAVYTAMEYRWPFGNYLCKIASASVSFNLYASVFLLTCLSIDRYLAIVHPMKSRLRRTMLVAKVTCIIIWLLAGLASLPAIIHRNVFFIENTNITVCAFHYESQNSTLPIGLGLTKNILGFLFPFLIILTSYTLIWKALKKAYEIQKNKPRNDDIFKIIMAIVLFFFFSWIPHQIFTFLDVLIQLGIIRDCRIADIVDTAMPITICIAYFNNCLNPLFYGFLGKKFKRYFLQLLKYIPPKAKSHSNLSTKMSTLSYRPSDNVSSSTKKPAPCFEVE
Summary of the method: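 Chemiluminescent enzyme-complementation read-out of β-arrestin2 recruitment to AGTR1 in engineered CHO-K1 cells after 90 min compound exposure at 37° C. Values are 4-parameter logistic EC50s in agonist mode, IC50s in antagonist mode, with efficacy relative to the maximal All response.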

[2] = molecular target: T1, AGTR1; experiment: DiscoveRx IP1 accumulation assay (HTRF), agonist mode, Pathunter CHO-K1 AGTR1 β-arrestin cell line; type: cell-based; conditions: for EC50: read-out: IP-1 EC50
Summary of the method: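 Agonist mode in CHO-K1 AGTR1 β-arrestin cells plated 14-16 h before; compounds at varying concentrations for 90 min at 37° C, IP1 accumulation read by HTRF (D2-conjugate and anti-IP1 cryptate, 20 min room temperature). EC50 from 4-parameter logistic fit; activity given as percentage of maximal AII effect.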

[3] = molecular target: T2, hAT1R (Homo sapiens, UniProt P30556); experiment: BRET β-arrestin2 biosensor assay, higher receptor expression (hAT1R 5 ng/well), HEK293 cells; type: cell-based; conditions: for EC50: High AT1R Expression
T2 sequence (P30556 1-359): T1 sequence (P30556 1-359)

[4] = molecular target: T2, hAT1R; experiment: cell-based; conditions: section of the 42nd table ending at r951, example numbering restarts after the DiscoveRx section; read-out: β-arrestin2 EC50
[5] = molecular target: T2, hAT1R; experiment: cell-based; conditions: agonist mode; for EC50: read-out: BRET P63 EC50

SMILES: CCc1nc2c(C)cc(C)nc2n1Cc1ccc(-c2cc(-c3cc(C)cc(C)c3)ccc2C(=O)O)cc1 [Example 181, 4″-((2-ethyl-5,7-dimethyl-3H-imidazo[4,5-b]pyridin-3-yl)methyl)-3,5-dimethyl-[1,1′:3′,1″-terphenyl]-4′-carboxylic acid]
- EC50 [1]: 48 nM
- DiscoveRx β-arrestin2 Ymax (%) [1]: 88.8%
- IP-1 Ymax (%) [2]: 6.1%
- EC50 [2]: 78.4 nM
- BRET β-Arrestin2 High AT1R Expression Ymax (%) [3]: 94.1%
- EC50 [3]: 4.8 nM
- EC50 [4]: 15.7 nM
- BRET P63 Ymax [5]: 16.1%
- EC50 [5]: 47.5 nM

SMILES: CCc1nc2c(C)cc(C)nc2n1Cc1ccc(-c2cc(-c3ccc(CO)cc3)ccc2C(=O)O)cc1 [Example 183]
- EC50 [1]: 66.2 nM
- DiscoveRx β-arrestin2 Ymax (%) [1]: 36.2%
- IP-1 Ymax (%) [2]: 14.1%
- EC50 [2]: 200 nM
- BRET β-Arrestin2 High AT1R Expression Ymax (%) [3]: 90.0%
- EC50 [3]: 62.9 nM
- EC50 [4]: 138 nM
- BRET P63 Ymax [5]: 13.2%
- EC50 [5]: 179 nM

SMILES: CCc1nc2c(C)cc(C)nc2n1Cc1ncc(-c2cc(-c3ccccc3)ccc2-c2nnn[nH]2)cn1 [Example 190]
- EC50 [1]: 138 nM
- DiscoveRx β-arrestin2 Ymax (%) [1]: 57.0%
- IP-1 Ymax (%) [2]: 17.5%
- EC50 [2]: 485 nM
- BRET β-Arrestin2 High AT1R Expression Ymax (%) [3]: 88.8%
- EC50 [3]: 83.6 nM
- EC50 [4]: 154 nM
- BRET P63 Ymax [5]: 16.4%
- EC50 [5]: 432 nM

SMILES: CCc1nc2c(C)cc(C)nc2n1Cc1ccc(-c2cc(-c3cccc(C)c3)ccc2C(=O)O)cn1 [Example 195, 3-(6-((2-ethyl-5,7-dimethyl-3H-imidazo[4,5-b]pyridin-3-yl)methyl)pyridin-3-yl)-3′-methylbiphenyl-4-carboxylic acid]
- EC50 [1]: 694 nM
- DiscoveRx β-arrestin2 Ymax (%) [1]: 77.6%
- IP-1 Ymax (%) [2]: 5.3%
- EC50 [2]: 358 nM
- BRET β-Arrestin2 High AT1R Expression Ymax (%) [3]: 87.0%
- EC50 [3]: 101 nM
- EC50 [4]: 282 nM
- BRET P63 Ymax [5]: 13.6%
- EC50 [5]: 264 nM

SMILES: CCc1nc2c(C)cc(C)nc2n1Cc1ccc(-c2cc(-c3ccccc3)ccc2C(=O)O)cn1 [Example 196, 3-(6-((2-ethyl-5,7-dimethyl-3H-imidazo[4,5-b]pyridin-3-yl)methyl)pyridin-3-yl)-[1,1′-biphenyl]-4-carboxylic acid]
- EC50 [1]: 3020 nM
- DiscoveRx β-arrestin2 Ymax (%) [1]: 50.4%
- IP-1 Ymax (%) [2]: 12.1%
- EC50 [2]: 869 nM
- BRET β-Arrestin2 High AT1R Expression Ymax (%) [3]: 83.3%
- EC50 [3]: 618 nM
- EC50 [4]: 1700 nM
- BRET P63 Ymax [5]: 7.6%
- EC50 [5]: 1100 nM

SMILES: CCc1nc2c(C)cc(C)nc2n1Cc1ccc(-c2cc(Oc3ccccc3)ccc2-c2nnn[nH]2)cc1 [Example 204, 2-Ethyl-5,7-dimethyl-3-((5′-phenoxy-2′-(1H-tetrazol-5-yl)-[1, 1′-biphenyl]-4-yl)methyl)-3H-imidazo[4,5-b]pyridine]
- EC50 [1]: 26.4 nM
- DiscoveRx β-arrestin2 Ymax (%) [1]: 42.4%
- IP-1 Ymax (%) [2]: 14.4%
- EC50 [2]: 66.8 nM
- BRET β-Arrestin2 High AT1R Expression Ymax (%) [3]: 85.9%
- EC50 [3]: 3.6 nM
- EC50 [4]: 9.8 nM
- BRET P63 Ymax [5]: 9.4%
- EC50 [5]: 10.7 nM

SMILES: CCc1nc2c(C)cc(C)nc2n1Cc1ccc(-c2cc(Oc3ccccc3F)ccc2-c2nnn[nH]2)cc1 [Example 205, 2-Ethyl-3-((5′-(2-fluorophenoxy)-2′-(1H-tetrazol-5-yl)-[1,1′-biphenyl]-4-yl)methyl)-5,7-dimethyl-3H-imidazo[4,5-b]pyridine]
- EC50 [1]: 31.8 nM
- DiscoveRx β-arrestin2 Ymax (%) [1]: 42.2%
- IP-1 Ymax (%) [2]: 16.7%
- EC50 [2]: 70.2 nM
- BRET β-Arrestin2 High AT1R Expression Ymax (%) [3]: 92.1%
- EC50 [3]: 4.8 nM
- EC50 [4]: 21.3 nM
- BRET P63 Ymax [5]: 20.2%
- EC50 [5]: 18.4 nM

SMILES: CCc1nc2c(C)cc(C)nc2n1Cc1ccc(-c2cc(Oc3ccc(F)cc3F)ccc2-c2nnn[nH]2)cc1 [Example 208]
- EC50 [1]: 20.8 nM
- DiscoveRx β-arrestin2 Ymax (%) [1]: 44.8%
- IP-1 Ymax (%) [2]: 19.9%
- EC50 [2]: 106 nM
- BRET β-Arrestin2 High AT1R Expression Ymax (%) [3]: 103.1%
- EC50 [3]: 6 nM
- EC50 [4]: 26.4 nM
- BRET P63 Ymax [5]: 17.4%
- EC50 [5]: 13.3 nM

SMILES: CCc1nc2c(C)cc(C)nc2n1Cc1ccc(-c2cc(OC3CCCCC3)ccc2-c2nnn[nH]2)cc1 [Example 209, 3-((5′-(Cyclohexyloxy)-2′-(1H-tetrazol-5-yl)-[1,1′-biphenyl]-4-yl)methyl)-2-ethyl-5,7-dimethyl-3H-imidazo[4,5-b]pyridine]
- EC50 [1]: 45.9 nM
- DiscoveRx β-arrestin2 Ymax (%) [1]: 49.6%
- IP-1 Ymax (%) [2]: 25.5%
- EC50 [2]: 110 nM
- BRET β-Arrestin2 High AT1R Expression Ymax (%) [3]: 90.6%
- EC50 [3]: 7.2 nM
- EC50 [4]: 50 nM
- BRET P63 Ymax [5]: 32.6%
- EC50 [5]: 37.6 nM

SMILES: CCc1nc2c(C)cc(C)nc2n1Cc1ccc(-c2cc(Oc3ccccc3F)ccc2-c2noc(=O)[nH]2)cc1 [Example 214, 3-(4′-((2-Ethyl-5,7-dimethyl-3H-imidazo[4,5-b]pyridin-3-yl)methyl)-5-(2-fluorophenoxy)-[1,1′-biphenyl]-2-yl)-1,2,4-oxadiazol-5(4H)-one]
- EC50 [1]: 76.1 nM
- DiscoveRx β-arrestin2 Ymax (%) [1]: 74.1%
- IP-1 Ymax (%) [2]: 50.0%
- EC50 [2]: 89.6 nM
- BRET β-Arrestin2 High AT1R Expression Ymax (%) [3]: 86.5%
- EC50 [3]: 4.2 nM
- EC50 [4]: 15.9 nM
- BRET P63 Ymax [5]: 43.3%
- EC50 [5]: 35.6 nM

SMILES: CCc1nc2c(C)cc(C)nc2n1Cc1ccc(-c2cc(-n3cc(C4CC4)nn3)ccc2-c2nnn[nH]2)cc1 [Example 225, 3-((5′-(4-Cyclopropyl-1H-1,2,3-triazol-1-yl)-2′-(5H-tetrazol-5-yl)-[1,1′-biphenyl]-4-yl)methyl)-2-ethyl-5,7-dimethyl-3H-imidazo[4,5-b]pyridine]
- EC50 [1]: 29 nM
- DiscoveRx β-arrestin2 Ymax (%) [1]: 35.4%
- IP-1 Ymax (%) [2]: 7.0%
- EC50 [2]: 25.2 nM
- BRET β-Arrestin2 High AT1R Expression Ymax (%) [3]: 82.1%
- EC50 [3]: 10.9 nM
- EC50 [4]: 187 nM
- BRET P63 Ymax [5]: 7.1%
- EC50 [5]: 29.5 nM

SMILES: CCc1nc2c(C)cc(C)nc2n1Cc1ccc(-c2cc(-n3cc(C(C)C)nn3)ccc2-c2nnn[nH]2)cc1 [Example 227]
- EC50 [1]: 32 nM
- DiscoveRx β-arrestin2 Ymax (%) [1]: 51.6%
- IP-1 Ymax (%) [2]: 9.8%
- EC50 [2]: 268 nM
- BRET β-Arrestin2 High AT1R Expression Ymax (%) [3]: 87.8%
- EC50 [3]: 7.4 nM
- EC50 [4]: 31.4 nM
- BRET P63 Ymax [5]: 19.9%
- EC50 [5]: 30.4 nM

SMILES: CCCc1cn(-c2ccc(-c3nnn[nH]3)c(-c3ccc(Cn4c(CC)nc5c(C)cc(C)nc54)cc3)c2)nn1 [Example 228]
- EC50 [1]: 30.4 nM
- DiscoveRx β-arrestin2 Ymax (%) [1]: 32.1%
- IP-1 Ymax (%) [2]: 13.0%
- EC50 [2]: 147 nM
- BRET β-Arrestin2 High AT1R Expression Ymax (%) [3]: 93.1%
- EC50 [3]: 31.9 nM
- EC50 [4]: 210 nM
- BRET P63 Ymax [5]: 11.4%
- EC50 [5]: 125 nM

SMILES: CCc1nc2c(C)cc(C)nc2n1Cc1ccc(-c2cc(-n3cc(C4CCCC4)nn3)ccc2-c2nnn[nH]2)cc1 [Example 230]
- EC50 [1]: 63.1 nM
- DiscoveRx β-arrestin2 Ymax (%) [1]: 16.7%
- IP-1 Ymax (%) [2]: 12.7%
- EC50 [2]: 340 nM
- BRET β-Arrestin2 High AT1R Expression Ymax (%) [3]: 53.5%
- EC50 [3]: 61.2 nM
- EC50 [4]: 140 nM
- EC50 [5]: > 100000 nM

SMILES: CCc1nc2c(C)cc(C)nc2n1Cc1ccc(-c2cc(-c3cn(CC)nn3)ccc2-c2nnn[nH]2)cc1 [Example 234, 2-Ethyl-3-((5′-(1-ethyl-1H-1,2,3-triazol-4-yl)-2′-(1H-tetrazol-5-yl)-[1,1′-biphenyl]-4-yl)methyl)-5,7-dimethyl-3H-imidazo[4,5-b]pyridine]
- EC50 [1]: 9.2 nM
- DiscoveRx β-arrestin2 Ymax (%) [1]: 59.9%
- IP-1 Ymax (%) [2]: 18.8%
- EC50 [2]: 19.3 nM
- BRET β-Arrestin2 High AT1R Expression Ymax (%) [3]: 93.3%
- EC50 [3]: 3.4 nM
- EC50 [4]: 12.2 nM
- BRET P63 Ymax [5]: 37.1%
- EC50 [5]: 28.2 nM

SMILES: CCc1nc2c(C)cc(C)nc2n1Cc1ccc(-c2cc(-c3cn(CCO)nn3)ccc2-c2nnn[nH]2)cc1 [Example 235]
- EC50 [1]: 56.6 nM
- DiscoveRx β-arrestin2 Ymax (%) [1]: 56.0%
- IP-1 Ymax (%) [2]: 14.9%
- EC50 [2]: 213 nM
- BRET β-Arrestin2 High AT1R Expression Ymax (%) [3]: 89.5%
- EC50 [3]: 29.6 nM
- EC50 [4]: 129 nM
- BRET P63 Ymax [5]: 17.7%
- EC50 [5]: 161 nM

SMILES: CCCn1cc(-c2ccc(-c3nnn[nH]3)c(-c3ccc(Cn4c(CC)nc5c(C)cc(C)nc54)cc3)c2)nn1 [Example 236]
- EC50 [1]: 12.5 nM
- DiscoveRx β-arrestin2 Ymax (%) [1]: 60.8%
- IP-1 Ymax (%) [2]: 19.2%
- EC50 [2]: 48.2 nM
- BRET β-Arrestin2 High AT1R Expression Ymax (%) [3]: 93.3%
- EC50 [3]: 3.6 nM
- EC50 [4]: 17.3 nM
- BRET P63 Ymax [5]: 36.2%
- EC50 [5]: 34.6 nM
